Assay results as given in publication PMC12111564, “Extended Family of Thiophosphoryl-Appended Pd(II) Pincer Complexes with a Deprotonated Amide Core: Synthesis and Biological Evaluation” (International Journal of Molecular Sciences, 2025).
Like-named read-outs stand apart in the source and are kept apart here.

Tests used:
[1] = system: hematopoietic cancer cells; assay: MTT cytotoxicity assay, hematopoietic cancer cells; type: cell-based, human; settings: inactive at concentrations up to
Experimental: (§1) The cytotoxic activity of the complexes obtained was screened against several human solid and hematopoietic cancer cell lines using the conventional MTT assay. To evaluate their selectivity for cancerous over non-cancerous cells, analogous tests were performed with pseudonormal human embryonic kidney (HEK293) and breast epithelial (HBL100) cell lines.
(§2) The cytotoxicity of the compounds obtained was investigated on human colorectal carcinoma (HCT116), breast cancer (MCF7), prostate adenocarcinoma (PC3), glioblastoma (U251), ovarian adenocarcinoma (Scov3), chronic myelogenous leukemia (K562 and K562/iS9), multiple plasmacytoma (AMO1), and acute lymphoblastic leukemia (H9) cell lines, as well as human embryonic kidney (HEK293) and mammary epithelial (HBL100 and HBL100/Dox) cells used as non-cancerous cell lineages. All the cell lines were obtained from American Type Culture Collection (ATCC). The tested compounds were initially dissolved in DMSO. Cisplatin was obtained from a commercial source (as an infusion concentrate in natural saline solution). The experiments were performed using the conventional MTT assay (ICN Biomedicals, Eschwege, Germany) according to the previously published procedure.

[2] = system: solid cancer cells; assay: MTT cytotoxicity assay, solid cancer cells; type: cell-based, human; settings: inactive at concentrations up to
Experimental: as §1, §2

[3] = system: K562/iS9 cells; assay: Apoptosis induction, Annexin V-FITC/PI flow cytometry, K562/iS9; type: cell-based, human; settings: 10 μM, 20 h
Text: (§3) To our delight, in general the biological profile of complex (R)-18 appeared to be close to that of the previously reported phenyl-substituted counterpart (compare entries 10 and 1 in Table 1 and entries 6 and 1 in Table 2), with a lower activity on HCT116 and PC3 cells but remarkably higher selectivity towards K562 cells over non-cancerous HEK293 cells. […] The total percentage of early (lower right quadrant) and late (upper right quadrant) apoptotic cells for (R)-18 on K562/iS9 subline was even higher than in the parental cells. These findings prompted us to gain further insight into the bioactivity of the Pd(II) pincer complexes of thiophosphoryl-functionalized amides from the viewpoint of their potential to overcome drug resistance.
(§4) The apoptosis-inducing ability of enantiomerically pure and racemic complexes 18 was studied on K562 and K562/iS9 cells that were cultured in a medium containing 10 μM of the tested palladocycle for 20 h. The experiments were performed following the published procedure. The analysis was carried out on a FACScan flow cytometer (Becton Dickinson, Franklin Lakes, NJ, USA) using the CellQuest software (version 3.3).

[4] = system: Micrococcus luteus (VKM Ac-2230); assay: Agar well diffusion, M. luteus; type: cell-based; settings: 10 µL per well, 28 °C, 24 h
Experimental: (§5) The microbial strains Bacillus subtillis (VKM B-501), Micrococcus luteus (VKM Ac-2230), and Groenewaldozyma auringiensis (VKM Y-2927) were used for antimicrobial activity tests. All strains were obtained from the All-Russian Collection of Microorganisms (VKM) at the Skryabin Institute of Biochemistry and Physiology of Microorganisms, Pushchino Scientific Center of Biological Research. B. subtilis and M. luteus were grown on the following medium (g/L): aminopeptide 60 mL; tryptone 5.0 g; yeast extract 1.0 g; soybean extract 30 mL; bacto-agar 15.0 g; final pH 7.2. G. auringiensis was grown on malt extract medium containing the following medium (g/L): malt extract 12.75; dextrin 2.75; glycerol 2.35; gelatin peptone 0.78; bacto-agar 15; final pH 5.4. The antimicrobial activity of ligand 17 and its cyclopalladated derivative 18 (both in the racemic form) was studied by the agar well diffusion method. The overnight grown culture of each strain (100 µL) was applied to the surface of the solid medium, then spread on agar plates using a glass spreader, and left for 30 min. The wells were cut in the culture plates using a sterilized glass tube (4 mm in diameter), and each compound sample was dissolved in DMSO to a final concentration of 0.25 or 2.5 mM (10 µL) and was placed in each well. After this, the plates were kept at room temperature for 3 h to improve the diffusion of the compounds and incubated at 28 °C for 24 h. DMSO (15%) was used as a negative control, while kanamycin (50 mg/mL) was used as a positive control. The antimicrobial activity was determined by measuring the inhibition zone around each well as a mean of three replicates.

[5] = system: mammary epithelial cells HBL100; assay: MTT cytotoxicity assay, HBL100; type: cell-based, human; settings: 48 h exposure, non-cancerous cells, read-out: IC50 ± SD, HBL100
Experimental: as §1, §2

[6] = system: acute lymphoblastic leukemia (H9); assay: MTT cytotoxicity assay, H9; type: cell-based, human; settings: 48 h exposure, read-out: IC50 ± SD, H9
Experimental: as §1
as §2, with “Cisplatin was obtained from a commercial source (as an infusion concentrate in natural saline solution).” left out

[7] = system: doxorubicin-resistant mammary epithelial cells HBL100/Dox; assay: MTT cytotoxicity assay, HBL100/Dox; type: cell-based, human; settings: 48 h exposure, doxorubicin-resistant clone, read-out: IC50 ± SD, HBL100/Dox
Experimental: as §1, §2

[8] = system: doxorubicin-resistant subline of chronic myelogenous leukemia cells (K562/iS9); assay: MTT cytotoxicity assay, K562/iS9; type: cell-based, human; settings: 48 h exposure, read-out: IC50 ± SD, K562/iS9
Experimental: as §1, §2

[9] = system: breast cancer (MCF7); assay: MTT cytotoxicity assay, MCF7; type: cell-based, human; settings: 48 h exposure, read-out: IC50 ± SD, MCF7
Experimental: as §1, §2

[10] = system: human embryonic kidney (HEK293); assay: MTT cytotoxicity assay, HEK293; type: cell-based; settings: 48 h exposure, non-cancerous cells, read-out: IC50 ± SD, HEK293
Experimental: as §1, §2

[11] = system: Groenewaldozyma auringiensis (VKM Y-2927); assay: Agar well diffusion, G. auringiensis; type: cell-based; settings: 10 µL per well, 28 °C, 24 h
Experimental: as §5

[12] = system: human colorectal carcinoma (HCT116); assay: MTT cytotoxicity assay, HCT116; type: cell-based; settings: 48 h exposure, read-out: IC50 ± SD, HCT116
Experimental: as §1, §2

[13] = system: multiple plasmacytoma (AMO1); assay: MTT cytotoxicity assay, AMO1; type: cell-based, human; settings: 48 h exposure, read-out: IC50 ± SD, AMO1
Experimental: as §1, §2

[14] = system: prostate adenocarcinoma (PC3); assay: MTT cytotoxicity assay, PC3; type: cell-based, human; settings: 48 h exposure, read-out: IC50 ± SD, PC3
Experimental: as §1, §2

[15] = system: Bacillus subtillis (VKM B-501); assay: Agar well diffusion, B. subtillis; type: cell-based; settings: 10 µL per well, 28 °C, 24 h
Experimental: as §5

[16] = system: K562 cells; assay: Apoptosis induction, Annexin V-FITC/PI flow cytometry, K562; type: cell-based, human; settings: 10 μM, 20 h
Text: as §3, §4

[17] = system: chronic myelogenous leukemia (K562); assay: MTT cytotoxicity assay, K562; type: cell-based, human; settings: 48 h exposure, read-out: IC50 ± SD, K562
Experimental: as §1, §2

[18] = system: acute lymphoblastic leukemia (H9); design: method as in PMID 37818804; settings: MTT; read-out: IC50 ± SD, H9; cited from earlier work
[19] = system: prostate adenocarcinoma (PC3); design: method as in PMID 37818804; settings: MTT; read-out: IC50 ± SD, PC3; cited from earlier work
[20] = system: glioblastoma (U251); assay: MTT cytotoxicity assay, U251; type: cell-based, human
Experimental: as §1, §2

[21] = system: chronic myelogenous leukemia (K562); design: method as in PMID 37818804; settings: MTT; read-out: IC50 ± SD, K562; cited from earlier work
[22] = system: human colorectal carcinoma (HCT116); design: method as in PMID 37818804; settings: MTT; read-out: IC50 ± SD, HCT116; cited from earlier work
[23] = system: breast cancer (MCF7); design: method as in PMID 37818804; settings: MTT; read-out: IC50 ± SD, MCF7; cited from earlier work
[24] = system: ovarian adenocarcinoma (Scov3); assay: MTT cytotoxicity assay, Scov3; type: cell-based, human
Experimental: as §1, §2

[25] = system: multiple plasmacytoma (AMO1); design: method as in PMID 37818804; settings: MTT; read-out: IC50 ± SD, AMO1; cited from earlier work
[26] = system: mammary epithelial cells HBL100; design: method as in PMID 37818804; settings: MTT; read-out: IC50 ± SD, HBL100; cited from earlier work
[27] = system: doxorubicin-resistant mammary epithelial cells HBL100/Dox; settings: MTT; read-out: IC50 ± SD, HBL100/Dox; cited from earlier work
[28] = system: doxorubicin-resistant subline of chronic myelogenous leukemia cells (K562/iS9); settings: MTT; read-out: IC50 ± SD, K562/iS9; cited from earlier work
[29] = system: human embryonic kidney (HEK293); design: method as in PMID 37818804; settings: MTT; read-out: IC50 ± SD, HEK293; cited from earlier work
[30] = biological target: T1, P-glycoprotein (P-gp) (Homo sapiens, UniProt P08183); assay: P-gp functional activity, Rh123 efflux from K562/iS9 cells; type: cell-based; settings: 20 μM of complex, 37 °C, 30 min, flow cytometry
T1 construct: We assessed the efflux of the fluorescent dye Rhodamine 123 (Rh123) from cells with a high P-gp content—K562/iS9 cells; endogenous in cells; host or cells: K562/iS9 (doxorubicin-resistant subline of K562)
T1 sequence (P08183 whole entry): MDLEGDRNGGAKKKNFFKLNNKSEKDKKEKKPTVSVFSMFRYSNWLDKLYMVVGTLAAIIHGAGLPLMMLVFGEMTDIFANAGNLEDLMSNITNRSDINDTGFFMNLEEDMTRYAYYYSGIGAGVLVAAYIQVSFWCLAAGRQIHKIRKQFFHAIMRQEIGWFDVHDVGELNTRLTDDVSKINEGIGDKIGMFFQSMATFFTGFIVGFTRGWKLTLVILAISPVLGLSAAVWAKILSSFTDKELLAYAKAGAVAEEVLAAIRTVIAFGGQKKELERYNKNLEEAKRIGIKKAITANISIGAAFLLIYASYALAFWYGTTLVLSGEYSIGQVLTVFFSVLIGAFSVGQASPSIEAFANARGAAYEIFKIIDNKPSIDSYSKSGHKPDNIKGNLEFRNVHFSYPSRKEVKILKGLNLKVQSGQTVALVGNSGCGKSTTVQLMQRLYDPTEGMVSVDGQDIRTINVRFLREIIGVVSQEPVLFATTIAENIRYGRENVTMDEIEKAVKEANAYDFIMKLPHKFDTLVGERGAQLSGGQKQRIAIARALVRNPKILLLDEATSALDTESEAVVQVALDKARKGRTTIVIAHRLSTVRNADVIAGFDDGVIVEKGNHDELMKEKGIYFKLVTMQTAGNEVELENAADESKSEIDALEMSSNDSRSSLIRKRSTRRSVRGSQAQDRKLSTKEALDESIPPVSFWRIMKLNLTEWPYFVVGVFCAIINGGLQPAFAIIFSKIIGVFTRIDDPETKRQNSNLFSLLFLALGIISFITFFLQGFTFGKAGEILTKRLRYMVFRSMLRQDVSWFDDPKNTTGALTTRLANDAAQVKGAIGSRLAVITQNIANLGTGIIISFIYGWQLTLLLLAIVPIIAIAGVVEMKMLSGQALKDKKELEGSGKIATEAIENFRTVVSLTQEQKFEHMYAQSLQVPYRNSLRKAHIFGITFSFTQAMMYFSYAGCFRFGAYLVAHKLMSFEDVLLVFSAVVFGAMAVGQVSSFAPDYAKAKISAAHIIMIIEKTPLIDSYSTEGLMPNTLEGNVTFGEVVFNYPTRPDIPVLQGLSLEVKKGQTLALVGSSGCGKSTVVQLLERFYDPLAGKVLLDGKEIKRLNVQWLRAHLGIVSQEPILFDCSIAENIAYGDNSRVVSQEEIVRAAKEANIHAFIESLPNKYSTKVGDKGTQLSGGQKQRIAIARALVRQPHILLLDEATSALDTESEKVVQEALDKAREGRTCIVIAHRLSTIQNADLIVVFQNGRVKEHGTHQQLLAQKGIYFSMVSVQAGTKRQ
Experimental: We assessed the efflux of the fluorescent dye Rhodamine 123 (Rh123) from cells with a high P-gp content—K562/iS9 cells [31].
The functional activity of P-gp was evaluated by the method described earlier [40]. K562/iS9 cells (3 × 10^6) were incubated for 15 min in a culture medium containing 5 μg/mL of Rh123 (Sigma-Aldrich, St. Louis, MO, USA). After incubation, the cells were washed twice and divided into several fractions. […] The incubation was carried out in the full culture medium at 37 °C for 30 min. […] The cell fluorescence was evaluated using a flow cytometer (Becton Dickinson). The results were analyzed using the CellQuest software.

[31] = Stability in DMSO solution by 31P NMR monitoring; type: physicochemical; settings: at least for several days
Text: The identities and structures of both free amides 2–8 and their cyclopalladated derivatives were unambiguously confirmed based on the IR and multinuclear NMR spectroscopic data (including different 2D NMR techniques), as well as elemental analyses, which are presented in detail in Section 3 (Materials and Methods) and Figures S1–S31 in the Supporting Information (SI). The realization of metalation of the central secondary amide unit in the resulting complexes was supported by the lack of NH proton singlets in the ^1H NMR spectra, as well as the absence of amide II and amide A bands in the IR spectra. The coordination of the thiophosphoryl pendant arm was evidenced by a strong downfield shift of the phosphorus resonance (ΔδP = 8.1–17.4 ppm) and the displacement of the P=S bond stretches towards lower frequencies, which reached up to 65 cm^−1. The coordination of the additional N- or S-donor unit was indirectly indicated by considerable shifts of the signals of CH/CH3 protons or quaternary carbon nuclei located in the close proximity to the heteroatom (for example, ΔδH for the methyl substituent in the thioether group of 13a,b was more than 0.65 ppm, while a coordination shift of the proton signal, corresponding to the CH unit adjacent to the nitrogen atom of the pyridine ring of 9, composed 0.45 ppm).

Row | Compound | IC50 [5] | IC50 [6] | IC50 [7] | IC50 [8] | IC50 [9] | IC50 [10] | IC50 [12] | IC50 [13] | IC50 [14] | IC50 [17] | IC50 [20] | IC50 [24] | other results
1 | N#Cc1ccccc1.N#Cc1ccccc1.[Cl][Pd][Cl] [PdCl2(NCPh)2] |  |  |  |  |  |  |  |  |  |  |  |  | concentration up to which inactive, hematopoietic cancer cells [1]: > 40 µM; concentration up to which inactive, solid cancer cells [2]: > 60 µM
2 | CC(C)C1[N]2C(=O)c3cccc[n+]3[Pd-2]2([Cl])[S+]=P1(c1ccccc1)c1ccccc1 (racemic) [Compound 18] | 14 ± 1.4 µM | 3.4 ± 0.1 µM | 23.3 ± 2.7 µM | 6.4 ± 1.7 µM | 19.2 ± 1.3 µM | 9.5 ± 1.8 µM | 9.2 ± 1.8 µM | 3 ± 1.2 µM | 11.5 ± 1.5 µM | 4.8 ± 1.2 µM |  |  | percentage of necrotic cells (upper left), K562/iS9 [3]: 0.4%; Inhibition Zone, M. luteus (VKM Ac-2230) ([4]; 0.25 mM): 0.5 ± 0.3 mm; Inhibition Zone, M. luteus (VKM Ac-2230) ([4]; 2.50 mM): 4.0 ± 0.5 mm; Inhibition Zone, G. auringiensis (VKM Y-2927) ([11]; 0.25 mM): 0 mm; Inhibition Zone, G. auringiensis (VKM Y-2927) ([11]; 2.50 mM): 0 mm; Inhibition Zone, B. subtillis (VKM B-501) ([15]; 0.25 mM): 0.5 ± 0.2 mm; Inhibition Zone, B. subtillis (VKM B-501) ([15]; 2.50 mM): 0.5 ± 0.2 mm; percentage of necrotic cells (upper left), K562 [16]: 0.2%
3 | O=C1c2cccc[n+]2[Pd-2]2([Cl])[S+]=P(c3ccccc3)(c3ccccc3)C(c3ccccc3)[N]12 (racemic) [Ia] |  |  |  |  |  |  |  |  |  |  | 34 ± 4 µM | 30 ± 2 µM | IC50 [18]: 3.2 ± 0.4 µM; IC50 [19]: 4 ± 0.4 µM; IC50 [21]: 7.4 ± 0.4 µM; IC50 [22]: 3 ± 0.5 µM; IC50 [23]: 10 ± 2.5 µM; IC50 [25]: 2.4 ± 0.3 µM; IC50 [26]: 16 ± 0.5 µM; IC50 [27]: 34 ± 4 µM; IC50 [28]: 5.8 ± 1.2 µM; IC50 [29]: 6.2 ± 0.5 µM
4 | COc1cc2c(cc1OC)CN(CCc1ccc(NC(=O)c3cccc4c(=O)c5cccc(OC)c5[nH]c34)cc1)CC2 [elacridar] |  |  |  |  |  |  |  |  |  |  |  |  | effect on Rh123 efflux / interaction with P-gp [30]: almost completely blocks the efflux of Rh123
5 | O=C1c2cc(Cl)cc[n+]2[Pd-2]2([Cl])[S+]=P(c3ccccc3)(c3ccccc3)C(c3ccccc3)[N]12 (racemic) [Compound 9, [κ^3-S,N,N-(L)Pd(II)Cl] complex] | 6.5 ± 1.5 µM | 3.2 ± 0.4 µM | 10.5 ± 1.5 µM | 6.2 ± 1.8 µM | 6.2 ± 2 µM | 10 ± 4 µM | 7 ± 0.5 µM | 2.4 ± 0.6 µM | 8 ± 0.5 µM | 8 ± 1.5 µM | 9 ± 1 µM | 8 ± 0.7 µM | stability in solution (DMSO) [31]: stable in solution
